Experimental data taken from publication PMC6610938 (BMC Microbiology, 2019).
≈ marks a conversion by molar mass, not a printed value.

Key:
[1] = tested on: T1, Pseudomonas aeruginosa ATCC 27853; experiment: microbe, parasite or virus in culture; parameters: CLSI broth microdilution MIC in cation-adjusted Mueller Hinton broth, standard inoculum; settings: ATCC27853, inoculum 5 x 10^5 CFU/mL, run 1
T1 construct: ATCC 27853
Method: (§1) Each strain was tested at the standard inoculum of 5 × 10^5 colony forming units (CFU)/mL, as well as at inocula lower (5 × 10^4) and greater (5 × 10^6) than the standard inoculum. Antibacterial susceptibility testing for each P. aeruginosa isolate obtained from the four isolate sources listed above was performed using standard CLSI broth microdilution methodology using cation-adjusted Mueller Hinton broth.

[2] = tested on: T2, Pseudomonas aeruginosa CLB 24228; experiment: microbe, parasite or virus in culture; parameters: CLSI broth microdilution MIC in cation-adjusted Mueller Hinton broth, standard inoculum; settings: CLB24228, inoculum 5 x 10^5 CFU/mL, run 1
T2 construct: CLB 24228
Method: as §1

## C[C@@H](O)[C@H]1C(=O)N2C(C(=O)O)=C(SCCNC=N)C[C@H]12 [IMI, imipenem]
[1]
  MIC: 2 µg/mL (≈ 6.68 µM)
[2]
  MIC: 32 µg/mL (≈ 107 µM)
